What all share (type): cell-based
In experiment [1] the test system is Human umbilical vein endothelial cells. Nature of the experiment: VEGF/HGF-triggered vasculogenesis in 3-D fibrin gel, or growth in 2-D culture. As to conditions: 3-D culture, VEGF/HGF-stimulated, blebbistatin or nocodazole. From the text:
(§1) At sites of tissue damage, inflammation or neoplasia, fibrinogen is converted into a 3-D meshwork of fibrin fibrils that serve as a structural support for endothelial cells undergoing neovascularization (Chun et al. 2006. Cell, 125: 577-591; Hiraoka et al. 1998. Cell, 95: 365-377; Schafer and Werner. 2008. Nat. Rev. Mol. Cell Biol., 9: 628-638; Zhou et al. 2008. Genes Dev., 22: 1231-1243). This process can be recapitulated in vitro by embedding serum-supplemented human endothelial cells within a 3-D fibrin gel in the presence of the pro-angiogenic factors, VEGF and HGF. Human umbilical vein endothelial cells were isolated from umbilical cords by perfusion of the umbilical vein with type 3 collagenase (Worthington, Lakewood, N.J.) and cultured in Medium-199 (Invitrogen, Carlsbad, Calif.) with 20% human serum and 50 μg/ml endothelial cell growth supplement (ECGS; BD Biosciences, Franklin Lakes, N.J.). For 3-D culture, endothelial cells were suspended in a solution of thrombin and aprotinin (Sigma, St. Louis, Mo.) and mixed 1:1 with a solution of 6 mg/ml fibrinogen (Calbiochem, Gibbstown, N.J.). Vasculogenesis was triggered by treatment with 100 ng/ml VEGF, 50 ng/ml HGF (Genentech, San Francisco, Calif.). Fibronectin fibrillogenesis was tracked in 3-D by co-culture with human fibronectin (Sigma) labeled with Alexa-594 (Invitrogen).
In the presence of VEGF and HGF, endothelial cells i) underwent marked changes in cell morphology from spherical to elongated, ii) mobilized proteinases which degrade the surrounding fibrin, iii) assembled a pericellular meshwork of fibronectin fibrils, and iv) initiated proliferative and tubulogenic responses that result in the formation of an anastomosing network of neovessels over a 6 day culture period (Hiraoka, supra; Saunders et al., 2006. J Cell Biol. 175: 179-191; Zhou et al., 2008. Proc. Natl. Acad. Sci. USA, 97: 4052-4057). […] Cell, 125: 757-767; Saunders et al., supra; Tomasini-Johansson et al., 2001. J. Biol. Chem., 276: 23430-23439; Zhou et al, supra). Endothelial cells cultured atop—rather than embedded within—fibrin gels (herein referred to as 2-D culture) display distinct growth requirements from those observed in 3-D culture.
Taken together, cytoskeletal reorganization and contractile tension may serve as the biomechanical effectors that transmit structural and mechanical cues from the pericellular ECM to the nuclear envelope. VEGF/HGF-stimulated endothelial cells were treated with either (a) blebbistatin to inhibit myosin ATPase function, or (b) nocodazole to prevent microtubule assembly under 3-D culture conditions (Salpingidou et al., 2007. J. Cell Biol., 178: 897-904; Zhou et al., supra).

The test system is the same in experiment [2]. Nature of the experiment: Nuclear architecture (GFP-lamin A, emerin) and nuclear pore complex (NUP153) distribution. To be noted: 3-D culture, VEGF/HGF-stimulated, blebbistatin or nocodazole.
Excerpt: as §1
As the 3-D-specific requirements for MT-MMPs and fibronectin matrix assembly correlate with changes in endothelial cell morphology, efforts were initiated to identify mechanistic routes whereby cell shape changes impact cell function. In particular, the impact of ECM remodeling on nuclear architecture was investigated. Nuclear architecture was tracked by either transfecting cells with a GFP-tagged form of the nuclear matrix filament, lamin A, or by immunostaining for the integral nuclear membrane protein, emerin (Dahl et al., 2008. Circ. Res., 102: 1307-1318; Glynn and Glover, 2005. Hum. Mol. Genet., 14: 2959-2969; Starr, 2009. J. Cell Sci., 122: 577-586; Stewart et al., 2007. Science, 318: 1408-1412). Under 2-D conditions, endothelial cell nuclei assumed an ellipsoid shape when cultured atop fibrin gels in the absence or presence of VEGF/HGF. In marked contrast, under 3-D conditions, endothelial cells cultured within fibrin gels in the absence of VEGF/HGF unexpectedly display a distorted morphology with multiple lamin A matrix and emerin infoldings and surface irregularities. Upon addition of VEGF/HGF, however, the nuclei of fibrin-embedded endothelial cells undergo a dramatic, and 3-D-specific, remodeling to assume a more classic, ovoid morphology. Three-dimensional reconstructions of DAPI-stained nuclei confirm that nuclear architecture transitions between multi-lobed and smooth elliptical shapes in the absence or presence, respectively, of VEGF/HGF.
Nuclear matrix architecture controls the distribution of the nuclear pore complexes that regulate the trafficking of protein and RNA across the nuclear envelope (Goldman et al., 2004. Proc. Natl. Acad. Sci. USA, 101: 8963-8968; Hawryluk-Gara et al., 2005. Mol. Biol. Cell, 16: 2382-2394; Liu et al., 2007. J. Cell. Biol., 178: 785-798). As such, the localization of nuclear pores was assessed in intact cells by monitoring the localization of the component protein, NUP153. In 3-D culture, unstimulated endothelial cells accumulate NUP153-containing pore complexes at nuclear membrane invaginations. In contrast, the nuclei of VEGF/HGF-stimulated endothelial cells display a uniform distribution of pore complexes in nuclear membranes.
To determine the roles of MMP-dependent proteolysis and fibronectin matrix assembly in mediating nuclear shape and nuclear pore complex changes, fibrin-embedded endothelial cells were stimulated with VEGF/HGF in the presence of FUD or GM6001. […]

Experiment [3] has the same test system. As to the kind of experiment: Chromatin organization (GFP-H2B, H3K9me3) and histone H3/H4 acetylation. As to conditions: 3-D culture, VEGF/HGF-stimulated, blebbistatin or nocodazole.
Excerpt: as §1
Yet, multi-lobed nuclei and anomalous nuclear pore complex distributions can be observed in laminopathies, a pleiotropic series of genetic disorders wherein mutations in lamin or emerin impact chromatin organization, histone modifications, and transcriptional activity (Csoka et al., 2004. Aging Cell, 3: 235-243; Dechat et al., 2008. Genes Dev, 22: 832-853; Dillon, 2008. Dev Cell, 15: 182-186; Malhas et al., 2007. J. Cell Biol., 176: 593-603; Mendjan et al., 2006. Mol. Cell, 21: 811-823; Shumaker et al., 2006. Proc. Natl. Acad. Sci. USA, 103: 8703-8708; Tang et al., 2008. J. Cell Sci., 121: 1014-1024). To determine whether VEGF/HGF-dependent changes in nuclear shape similarly affect chromatin structure/function, chromatin packaging was tracked at the single-endothelial cell level by monitoring GFP-tagged histone H2B or pericentromeric constitutive heterochromatin localization. […] heterochromatin localization was visualized by immunostaining for trimethylated lysine 9 of histone H3 (H3K9me3) (Shumaker, supra; Tang, supra).
Histone acetylation can be regulated by chromatin positioning within the nucleus (Finlan et al., 2008. PLoS Genet, 4: e1000039; Somech et al., 2005. J. Cell Sci., 118: 4017-4025). Thus, the acetylation status of histones H3 and H4 was assessed as functional markers of changes in chromatin organization. […]

For experiment [4] the test system is unchanged. Nature of the experiment: Cytoskeletal organization (F-actin, β-tubulin, vimentin) and isometric tension/contractile force. To be noted: 3-D culture, VEGF/HGF-stimulated, blebbistatin or nocodazole.
Experiment [5] relates to human endothelial cells. Nature of the experiment: Fn matrix assembly by endothelial cells in 3-D fibrin gel, confocal laser microscopy. As to conditions: growth factor cocktail, FUD or Del29 250 nM, L8 or 9D2 100 μg/ml, 70 kDa Fn fragment 75 μg/ml. As for the experimental part: Endothelial cells were isolated from human umbilical cord veins by collagenase digestion and cultured in Medium 199 (Gibco) containing 20% human serum, 50 μg/ml endothelial cell growth supplement (BD Biosciences), 100 U/ml penicillin, and 100 μg/ml streptomycin (Hiraoka et al. 1998. Cell, 95(3): 365-377). For 2-D/3-D culture, endothelial cell monolayers (no later than third passage) were suspended by mild trypsinization and dispersed within or plated atop fibrin (3 mg/ml) or collagen (2.2 mg/ml) gels (prepared as described in Hiraoka, supra, and Hotary et al. 2003. Cell, 114(1): 33-45), and stimulated with a cocktail of growth factors including 100 ng/ml human vascular endothelial growth factor (Genentech), 50 ng/ml human hepatocyte growth factor (Genentech), 10 ng/ml human TGFα (Biosource), 0.5 ng/ml TGFβ1 (R and D Systems), and 100 μg/ml heparin (Sigma). In selected experiments, endothelial cell spheroids were prepared and suspended in 3-D fibrin gels.
The effect of Fn matrix assembly, or lack thereof, on endothelial cell function during neovascularization was assessed. Human serum was depleted of Fn by gelatin-sepharose affinity chromatography (Amersham) and supplemented with either 20 μg/ml of human plasma Fn (Sigma) or FITC-labeled Fn. […]
(Chernousov et al. 1991. J. Biol. Chem., 266(17): 10851-10858; Tomasini-Johansson et al. 2001. J. Biol. Chem., 276(26): 23430-23439; Mao and Schwarzbauer. 2005. Matrix Biol., 24(6): 389-399; and Tomasini-Johansson et al. 2006. Matrix Biol., 25(5): 282-293). […] Cell number in 3-D cultures was determined by hemacytometry after dissolving gels with 2 mg/ml bacterial collagenase (Worthington) while the number of patent tubules was determined in randomly selected cross-sections. Fn matrix assembly and cell morphology were monitored by confocal laser microscopy. To examine cell migration, endothelial cells were embedded in a 100 μl fibrin gel for 2 hours, then placed within a 500 μl gel for 8 days in the presence of Del29, FUD, control IgG, or L8, after which migration from the inner gel was assessed. […]

The subject of experiment [6] is human endothelial cells. Nature of the experiment: F-actin cytoskeletal organization, activated β1 integrin and vinculin distribution (phalloidin, confocal). To be noted: 3-D fibrin gel, 2 days, FUD or Del29 peptide. As for the experimental part:
To further study the effects of Fn matrix inhibition, additional cytological processes associated with angiogenesis were examined. Endothelial cells were cultured within 3-D or 2-D fibrin gels in the presence of the FUD or Del 29 peptides for 2 days. F-actin cytoskeletal organization was monitored following staining with Alexa 488-conjugated phalloidin. Cells also were stained with an antibody against activated β1 integrin or transfected with a GFP-tagged vinculin expression vector (pRK-vinculin-EGFP) to study distribution. Following counterstaining with Alexa 594-labeled phalloidin, fluorescence was monitored by confocal laser microscopy.
In the absence of Fn fibrillogenesis, an impaired ability of embedded endothelial cells to generate myosin-dependent forces and increase cytoplasmic stiffness was predicted to affect both Fn unfolding, as well as the ability of the cells to properly register the mechanical properties of the surrounding substratum (Wu et al. 1995. Cell, 83(5): 715-724; Zhong et al. 1998. J. Cell Biol., 141(2): 539-551; Baneyx et al. 2002. Proc. Natl. Acad. Sci. USA, 99(8): 5139-5143; Discher et al. 2005. Science, 310(5751): 1139-1143; Engler, supra; and Yoneda, supra). As such, the rheologic and functional characteristics of endothelial cells were assessed in the presence of the specific myosin ATPase inhibitor, blebbistatin. […]

Consider 2 compounds from patent publication US8697081B2, “Method of modulating neovascularization” (The Regents of the University of Michigan, priority 2008, dated 2014).

On to `COC(=O)Nc1nc2ccc(C(=O)c3cccs3)cc2[nH]1` [nocodazole], for which, in experiment [1], the “endothelial cell 3-D tubulogenesis” value is recorded as “completely inhibit”. For the same compound, the “nuclear shape and nuclear pore distribution” value in experiment [2] is “multi-lobed nuclei with perturbations in nuclear pore distribution”. Also, in experiment [3], the chromatin distribution entry is “chromatin condensations at the nuclear periphery with increased interchromatin space”; the “levels of acetylated histones H3 and H4” value is reported as “decreased levels”. The “contractile force exerted on the 3-D ECM” value in experiment [4] is reported as “impairing”.
As for “Del29: control peptide wherein FUD residue 29 is deleted to abrogate Fn binding (KDQSPLAGESGETEYITEVYGNQQNPVDDKKLPNETGFSGNMVETEDT)”, the “Fn matrix assembly (Fn polymerization)” value in the experiment with human endothelial cells [5] is “did not negatively impact”. Moreover, the “stress fiber formation (F-actin phalloidin staining)” value with human endothelial cells [6] was “well-organized stress fibers”.
